Results reported in ChEMBL document CHEMBL1157539, “Thousands of chemical starting points for antimalarial lead identification” (Nature, 2010).

Test system: Plasmodium falciparum
Assay: GSK_TCMDC: Inhibition of Plasmodium falciparum 3D7 in whole erythrocytes, using parasite LDH activity as an index of growth.
Type: functional, organism-based
Conditions: Plasmodium falciparum, 3D7

Which XC50 does the source give for `O=C(Cc1c[nH]cn1)Nc1cccc(-c2ccc(-c3nc4cc(F)ccc4[nH]3)cc2)c1` here?
The XC50 was 806 nM.

`COc1cc(Nc2nccc(N3CCC(NC(=O)Nc4cccc(C(C)=O)c4)C3)n2)cc(OC)c1OC` (stereo unspecified) was tested. Which XC50 did it give?
Its XC50 is 973 nM.

How did the XC50 turn out when `CC(C)(C)C1CCc2onc(C(=O)Nc3cc(Cl)ccc3O)c2C1` (stereo unspecified) was run?
The XC50 was 779 nM.

`CCC(Cc1cnc2nc(N)nc(N)c2n1)c1ccc(C(=O)N[C@@H](CCC(=O)O)C(=O)O)cc1` (stereo partly specified) [EDATREXATE] was tested. Which XC50 did it give?
The XC50 was 36.7 nM.

For `O=C(COc1ccc(Cl)cc1)N1CCC(CN2CCC(c3c[nH]c4ccccc34)CC2)CC1`, which XC50 is on record?
The XC50 was 1100 nM.

How did the XC50 turn out when `O=S(=O)(c1ccccc1)n1ccc2cc(Nc3ncnc4cc(C#C[C@H]5CCCN5)sc34)ccc21` was run?
The XC50 was 1070 nM.

With `CC1(C)N=C(N)N=C(Nc2ccc(Cl)cc2)N1` as the molecule, how does the XC50 read?
Its XC50 is 336 nM.

Which XC50 does the source give for `COc1cc(NC(=O)Nc2ccc(Br)cc2C(=O)Nc2ccc(Br)cc2)cc(OC)c1OC` here?
The XC50 was 761 nM.

For `Cc1cnc(NCCc2ccc(F)cc2)nc1N[C@@H](CC(C)C)C(=O)Nc1ccccc1`, which XC50 is on record?
Its XC50 is 970 nM.

With `O=C(Cc1ccccc1)NC1CCN(c2ccnc3cc(Cl)ccc23)C1` (stereo unspecified) as the molecule, how does the XC50 read?
The XC50 was 805 nM.

How did the XC50 turn out when `Fc1cccc(C=NN=c2cc[nH]c3ccccc23)c1` was run?
Its XC50 is 839 nM.

`COc1ccc(C(=O)N2CCc3cc4nccc(N5CCN6CCC[C@H]6C5)c4cc32)cc1` was tested. Which XC50 did it give?
The XC50 was 948 nM.

With `CC(C)CNCc1cccc(-c2ccc(CN(CCCN3CCN(C)CC3)C(=O)CCC3CCCC3)cc2)c1` as the molecule, how does the XC50 read?
The XC50 was 877 nM.

How did the XC50 turn out when `CCOc1ccc(Br)cc1/C=C/C(=O)Nc1ccc(C2CCN(C)CC2)cc1` was run?
The XC50 was 450 nM.

For `COc1cccc(NC(=O)[C@H](C(C)C)n2c(=O)[nH]c3ccccc3c2=O)c1`, which XC50 is on record?
Its XC50 is 266 nM.

`Cc1ccc(-n2c(C)nc3c(Nc4ccc(-c5ccncc5)cc4)ncnc32)c(C)c1` was tested. Which XC50 did it give?
The XC50 was 101 nM.

How did the XC50 turn out when `CC(=O)Nc1nc(C(=O)Nc2cccc(-c3ccc(-c4nc5ccccc5[nH]4)cc3)c2)cs1` was run?
The XC50 was 421 nM.

Which XC50 does the source give for `N=C(N)Nc1nc(-c2cccc(NC(=O)CCCCCCCON3C(N)=NC(N)=NC34CCCCC4)c2)cs1` here?
Its XC50 is 43.5 nM.

How did the XC50 turn out when `O=C(Nc1cccc(CN2CCCN(Cc3ccc4c(c3)OCO4)CC2)c1)c1cc2ccccc2s1` was run?
Its XC50 is 990 nM.

With `O=c1cc(NCCCCNCc2cccc(C(F)(F)F)c2)[nH]c2ccccc12` as the molecule, how does the XC50 read?
The XC50 was 789 nM.

`COc1ccc2nccc([C@@H](O)CN3CCC(NCC4COc5ccccc5O4)CC3)c2c1` (stereo partly specified) was tested. Which XC50 did it give?
Its XC50 is 247 nM.

With `CCOc1cc(C=NNc2nc(C)cc(-n3nc(C)cc3C)n2)ccc1O` as the molecule, how does the XC50 read?
Its XC50 is 1080 nM.

`N#Cc1cccc(NC(=O)Nc2cccc(-c3cccc(-c4nc5cc(C(F)(F)F)ccc5[nH]4)c3)c2)c1` was tested. Which XC50 did it give?
Its XC50 is 224 nM.

How did the XC50 turn out when `Cc1cccc2nc(-c3cccc(-c4cccc(NC(=O)C(C)CN(C)C)c4)c3)[nH]c12` (stereo unspecified) was run?
Its XC50 is 413 nM.

`COc1cc(C)nc2ccc(NC(=O)c3cc(C(F)(F)F)cc(C(F)(F)F)c3)cc12` was tested. Which XC50 did it give?
The XC50 was 912 nM.

`COc1ccc(NC(=O)NC2CCN(c3ccnc4ccccc34)C2)cc1` (stereo unspecified) was tested. Which XC50 did it give?
Its XC50 is 875 nM.

Which XC50 does the source give for `O=C(NC1CCC(CN2CCC(c3c[nH]c4ccccc34)CC2)CC1)c1cnn(-c2ccccc2)c1-c1ccccc1Cl` (stereo unspecified) here?
The XC50 was 182 nM.

`CC(=O)Nc1ccc2[nH]cc(C3CCN(CC4CCN(C(=O)/C=C/c5ccc(Cl)c(Cl)c5)CC4)CC3)c2n1` was tested. Which XC50 did it give?
Its XC50 is 161 nM.

With `Cc1cccc2nc(-c3ccc(-c4ccc(CN5CCC(C(N)=O)CC5)cc4)s3)[nH]c12` as the molecule, how does the XC50 read?
The XC50 was 907 nM.

With `O=C(Nc1ccc(-c2nc3ccccc3[nH]2)cc1)c1cccc(S(=O)(=O)N2CCOCC2)c1` as the molecule, how does the XC50 read?
The XC50 was 902 nM.

For `CN(C)Cc1ccc2nc(-c3cccc(Cc4cc(Cl)ccc4OCc4ccc(Cl)cc4F)n3)[nH]c2c1`, which XC50 is on record?
Its XC50 is 1130 nM.

With `O=C(Nc1cc(F)cc(F)c1)N1CCOC(CCN2CCC3(CCc4ccccc43)CC2)(c2ccc(Cl)c(Cl)c2)C1` (stereo unspecified) as the molecule, how does the XC50 read?
The XC50 was 275 nM.

Which XC50 does the source give for `Cc1cc(-c2cccc3c(NC(=O)N4CCc5cc6nccc(N7CCN8CCC[C@H]8C7)c6cc54)cccc23)cc(C)n1` here?
The XC50 was 485 nM.

For `O=C(Nc1nc2cc(S(=O)(=O)NCc3ccc(Cl)c(Cl)c3)ccc2n1CCCn1ccnc1)c1ccc(Cl)cc1`, which XC50 is on record?
The XC50 was 727 nM.

With `CC(C)c1cn2c3c(cc(C(=O)N[C@@H](Cc4ccccc4)[C@H](O)CNC4CCCCC4)cc13)N(C)S(=O)(=O)CC2` as the molecule, how does the XC50 read?
Its XC50 is 30 nM.

`COc1ccc2nccc([C@@H](O)CN3CCC(NCc4cnc5c(c4)NC(=O)CS5)C(F)C3)c2c1` (stereo partly specified) was tested. Which XC50 did it give?
Its XC50 is 769 nM.

How did the XC50 turn out when `O=S(=O)(c1ccc2cc[nH]c2c1)N1CCC[C@@H]1CCN1CCC(c2c[nH]c3cnccc23)CC1` was run?
Its XC50 is 1020 nM.

How did the XC50 turn out when `CS(=O)(=O)Nc1cccc(-c2cnc3[nH]cc(-c4cc(N)cc(C(=O)O)c4)c3c2)c1` was run?
The XC50 was 1080 nM.

For `CCn1c(SC)nnc1C1CCCN(CC(=O)Nc2nc3ccc(OC)cc3s2)C1` (stereo unspecified), which XC50 is on record?
The XC50 was 746 nM.

Which XC50 does the source give for `Nc1nc(N)c2c(ccn2Cc2cc3c(cc2Cl)OCO3)n1` here?
Its XC50 is 765 nM.

For `CC[C@H]1CN2CC[C@H]1C[C@H]2[C@H](O)c1cc(/C=C/c2ccc(F)cc2)nc2ccc(OC)cc12`, which XC50 is on record?
The XC50 was 28.1 nM.

For `COc1cc2c(cc1NS(=O)(=O)c1ccc(OCc3ccc(Br)cc3)cc1)CCN(C1CCC1)CC2`, which XC50 is on record?
The XC50 was 843 nM.

`N#Cc1cccc(Nc2nccc(NCC(O)c3ccc(C(F)(F)F)cc3)n2)c1` (stereo unspecified) was tested. Which XC50 did it give?
Its XC50 is 556 nM.

`COc1cc2nc(NCCCN3CCCCC3)nc(NCc3ccccc3)c2cc1OC` was tested. Which XC50 did it give?
The XC50 was 998 nM.

For `CS(=O)(=O)c1ccc(CNCc2cccc(-c3ccc(-c4nc5cc(C(F)(F)F)ccc5[nH]4)cc3)c2)cc1`, which XC50 is on record?
The XC50 was 513 nM.

With `CCN(CC)CCN(Cc1ccc(-c2ccc(C(F)(F)F)cc2)cc1)C(=O)Cn1c(SCc2ccc(F)cc2)cc(=O)c2ccccc21` as the molecule, how does the XC50 read?
Its XC50 is 752 nM.

For `COc1ccccc1NC(=O)Nc1ccc(-c2ccc(-c3nc4cc(C(F)(F)F)ccc4[nH]3)cc2)cc1`, which XC50 is on record?
Its XC50 is 544 nM.

How did the XC50 turn out when `N=C(N)Nc1nc(-c2cccc(NC(=O)NCc3cccc4ccccc34)c2)cs1` was run?
Its XC50 is 841 nM.

Which XC50 does the source give for `CCOC(=O)CCCCOc1c(OC)cc(Cc2cnc(N)nc2N)cc1OC` here?
Its XC50 is 29.9 nM.

Which XC50 does the source give for `Fc1cccc(Nc2nc(NCc3ccc4ccsc4c3)nc(Nc3cccc(F)c3)n2)c1` here?
Its XC50 is 1080 nM.

With `CN1CCCc2cc(NC(=O)c3cc(-c4ccc(Cl)cc4)cs3)ccc2C1` as the molecule, how does the XC50 read?
Its XC50 is 810 nM.

For `CS(=O)(=O)NCCCNCc1ccc(-c2ccc(-c3nc4cc(C(F)(F)F)ccc4[nH]3)s2)cc1`, which XC50 is on record?
Its XC50 is 515 nM.

`O=C(NC1CCC(CN2CCC(c3c[nH]c4ccccc34)CC2)CC1)c1ccc(-c2cc(C(F)(F)F)ccc2Cl)o1` (stereo unspecified) was tested. Which XC50 did it give?
Its XC50 is 714 nM.

Which XC50 does the source give for `CCc1nc2c(N)nc(N)nc2nc1-c1ccc(OC)cc1` here?
The XC50 was 1200 nM.

With `CN1CCN(CCCN(Cc2csc(-c3ccc(CNCc4ccccc4)cc3)n2)S(=O)(=O)c2cccc3cccnc23)CC1` as the molecule, how does the XC50 read?
The XC50 was 1410 nM.

With `Cc1cc2c(cc1C(F)(F)F)N(C(=O)Nc1cc(C(=O)NC3CCN(Cc4ccccc4)C3)cc(C(F)(F)F)c1)CC2` (stereo unspecified) as the molecule, how does the XC50 read?
The XC50 was 339 nM.

For `N#Cc1ccc(/C=C/C(=O)NCCCCCN2CCCN(C(=O)Nc3ccc(Cl)c(C(F)(F)F)c3)CC2)cc1`, which XC50 is on record?
Its XC50 is 437 nM.

How did the XC50 turn out when `COc1ccc(C=NNc2ccnc3cc(F)c(C)cc23)c2ccccc12` was run?
Its XC50 is 771 nM.

`CC(C)CN1CCCN(Cc2cccc(NC(=O)c3cc4ccccc4s3)c2)CC1` was tested. Which XC50 did it give?
The XC50 was 1770 nM.

For `O=C(/C=C/c1ccc(Cl)c(Cl)c1)NCCCCCN1CCC(NC(=O)Nc2cc(Cl)nc(Cl)c2)CC1`, which XC50 is on record?
Its XC50 is 976 nM.

Which XC50 does the source give for `CCN(CCCNc1nc(=S)[nH]c2cc(OC)c(OC)cc12)c1ccccc1` here?
The XC50 was 721 nM.

With `CNCCNCc1cccc(-c2ccc(-c3nc4cccc(C)c4[nH]3)s2)c1` as the molecule, how does the XC50 read?
Its XC50 is 953 nM.

For `COc1ccc2nccc([C@@H](O)CN3CCC(NCCOc4ccc(F)cc4Cl)CC3)c2c1`, which XC50 is on record?
Its XC50 is 276 nM.

With `Cc1ccc(C)c(CN2CCC(CNC(=O)c3cc4ccc5cccnc5c4[nH]3)CC2)c1` as the molecule, how does the XC50 read?
The XC50 was 993 nM.

How did the XC50 turn out when `COc1ccccc1C1CCN(Cc2csc(NC(=O)c3ccc(-c4ccc(C(F)(F)F)cc4)cc3)n2)CC1` was run?
The XC50 was 954 nM.

How did the XC50 turn out when `O=C(Nc1ccc(N2CCCN(Cc3cccc(F)c3)CC2)cc1)c1cccs1` was run?
Its XC50 is 546 nM.
